Assay results: ChEMBL document CHEMBL5226289, “Discovery of natural anti-inflammatory alkaloids: Potential leads for the drug discovery for the treatment of inflammation” (Eur J Med Chem, 2021)
≈ marks a conversion by molar mass, not a printed value.

Experiments:
[1] = system: Rattus norvegicus; experiment: Antiinflammatory activity in Wistar albino rat assessed as inhibition of CFA-induced paw edema at 10 mg/kg, po preadministered for 24 hrs followed by CFA administration and measured after 16 days; assay type: functional; conditions: 408 h, time 17 day
[2] = system: Rattus norvegicus; experiment: Antiinflammatory activity in Wistar albino rat assessed as inhibition of carrageenan-induced paw edema at 20 mg/kg, po preadministered for 1 hrs followed by carrageenan administration and measured upto 10 hrs by Plethysmometer; assay type: functional; conditions: time <= 11 hrs
[3] = target: T1, Prostaglandin G/H synthase 2 (Homo sapiens, UniProt P35354); experiment: Inhibition of human recombinant COX-2 expressed in baculovirus infected Sf21 cells using arachidonic acid as substrate by spectrophotometric analysis
T1 sequence (P35354 whole entry): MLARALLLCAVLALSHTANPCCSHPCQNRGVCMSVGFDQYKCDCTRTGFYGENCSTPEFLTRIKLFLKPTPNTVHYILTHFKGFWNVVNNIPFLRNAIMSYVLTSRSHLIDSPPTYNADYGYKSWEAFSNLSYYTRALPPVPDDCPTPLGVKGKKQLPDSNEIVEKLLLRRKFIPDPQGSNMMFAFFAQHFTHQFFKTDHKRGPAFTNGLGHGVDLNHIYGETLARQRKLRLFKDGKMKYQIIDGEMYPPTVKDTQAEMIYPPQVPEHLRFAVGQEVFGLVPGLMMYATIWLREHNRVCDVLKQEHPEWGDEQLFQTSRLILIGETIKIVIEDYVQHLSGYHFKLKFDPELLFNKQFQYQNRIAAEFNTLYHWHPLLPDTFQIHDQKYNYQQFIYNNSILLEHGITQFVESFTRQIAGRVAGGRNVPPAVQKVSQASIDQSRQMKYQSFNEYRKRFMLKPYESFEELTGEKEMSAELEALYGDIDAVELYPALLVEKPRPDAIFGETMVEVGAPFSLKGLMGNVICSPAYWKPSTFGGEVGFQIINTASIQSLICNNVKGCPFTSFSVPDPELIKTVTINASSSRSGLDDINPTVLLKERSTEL

[4] = Inhibition of goat 5-LOX by spectrophotometric analysis; parameters: species or system Capra hircus

With `O=c1c2ccccc2nc2n1CCC2O` (centres undefined) the inhibition in vivo at 10 mg/kg [1] was 63.9%.
With `OC1CCN2Cc3ccccc3N=C12` (centres undefined) the inhibition in vivo at 20 mg/kg [2] was 59.5%.
`CC[C@H](CCCC[C@@H]1/C=C\CN/C=C\C1)C[C@@H]1CCC(=O)ON1` showed an IC50 [3] of 2.5 mM and an IC50 [4] of 0.9 mg/mL (≈ 2810 µM).
